Legend:
[1] = tested on: T.cruzi CL Brener (clone F11-F5); assay: Vero cell infection by trypomastigotes in the presence of inhibitor (17h), Giemsa scoring; type: cell-based; set-up: key: EI = % infected cells × mean parasites per infected cell; conditions: Table 5
TcPRAC = molecular target: T1, TcPRAC (Trypanosoma cruzi, UniProt Q4DA80); assay: L-proline racemization assay by polarimetry; type: biochemical; conditions: for potency relative to PYC in terms of TcPRAC inhibition: based on the DAAOx test and polarimetry; for Racemization Inhibition: L-Proline 20 mM, 30 minutes 37°C, 0.25 µM TcPRAC
T1 construct: implied only by nickel IMAC purification; made in house; host or cells: E. coli BL21 (DE3)
T1 sequence (Q4DA80 32-423): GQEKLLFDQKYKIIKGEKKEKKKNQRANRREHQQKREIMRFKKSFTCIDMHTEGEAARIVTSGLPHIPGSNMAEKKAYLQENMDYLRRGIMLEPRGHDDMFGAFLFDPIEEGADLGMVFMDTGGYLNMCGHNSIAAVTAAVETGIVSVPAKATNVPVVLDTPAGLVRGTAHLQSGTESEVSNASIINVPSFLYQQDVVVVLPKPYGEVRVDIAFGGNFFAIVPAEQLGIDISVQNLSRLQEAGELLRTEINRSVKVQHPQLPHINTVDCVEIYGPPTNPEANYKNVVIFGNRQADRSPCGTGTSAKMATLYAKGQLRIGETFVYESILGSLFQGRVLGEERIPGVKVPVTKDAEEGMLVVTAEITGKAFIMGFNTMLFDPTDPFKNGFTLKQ
Description: Briefly, classical assays of Proline racemization induced by TcPRAC were performed in tubes in a final volume of 1.5 ml and optical rotations measured in a polarimeter 241MC (Perkin Elmer). Parallel assays of Proline racemization were transposed into microplates in a final volume of 100 µl, as follows: serial dilutions of L- Proline ranging from 40 mM to 2.5 mM were prepared in 0.2 M sodium acetate pH 6.0 containing 0.25 mM rTcPRAC and loaded into microplate wells in the presence or in the absence of 0 - 20 µM pyrrole-2 carboxylic acid (PYC) or of similar dilutions of unknown potential inhibitors. Specific control wells were included omitting the TcPRAC and/or the PYC.
The values presented in Table 2B correspond to racemization reactions performed in the absence or in the presence of the different inhibitors. Note that 6 µM PYC is necessary to inhibit 100 % of the racemization of 10-20 mM L-proline. Briefly, L-Proline (20 mM) were incubated for 30 minutes at 37°C in test tubes with or without 0.25 µM TcPRAC in 0.2 M sodium acetate pH 6. Reactions were stopped by heating at 65° C for 10 minutes. Reaction volumes were analyzed for D-Proline formation, by measuring optical rotations in a polarimeter (365nm).

[2] = tested on: T.cruzi CL Brener (clone F11-F5); assay: Vero cell infection by trypomastigotes in the presence of inhibitor (17h), Giemsa scoring; type: cell-based; set-up: key to Endocytic index / Endocytic index (EI): EI = % infected cells × mean parasites per infected cell; conditions: for Mean number of parasites/ cell: 1,5 at 0; for % Infected cells: 38,6 at 0; for Endocytic index: 57 at 0
Description: (§1) Vero cells (from green monkey kidney) were seeded at a density of 15x10^6 cells per 25cm^2 culture flasks or at 5 x10^4 cells/well into LabTek slides. The cultures were maintained in RPMI 1640 medium supplemented with 5% fetal bovine serum and kept at 37°C in an atmosphere of 5% CO2. Cell culture-derived trypomastigotes from T.cruzi CL Brener (clone F11-F5) were isolated from the supernatant of Vero cells, which had been previously infected with bloodstream trypomastigotes. Vero cell cultures were infected for 17h at 37°C with cultured trypomastigotes at a 10:1 parasite/cell ratio in the presence or in the absence of increasing doses of freshly made dilutions (3-30 µM) of (E)-4-oxopent-2-enoic acid (OxoPA) and its derivative (E)-5-bromo-4-oxopent-2-enoic acid (Br-OxoPA), previously dissolved in dimethyl sulfoxide (DMSO). For comparison, cultures were seeded with or without 10-1000 µM specific proline racemase inhibitor pyrrole-2-carboxylic acid (PYC) also diluted in DMSO. To verify if proline racemase inhibitors could also exert an effect on the parasite intracellular cycle after 17 hours of parasite-host cell interaction, all the wells were then rinsed three times to eliminate all extracellular parasites and new medium was added to the cultures that were incubated for up to 48 hours with fresh dilutions of the inhibitor compounds. After the different treatments, cultures were washed with PBS, fixed and stained with Giemsa. The numbers of infected host cells and of parasites per infected cell were then scored in at least 400 host cells in independent experiments, run in duplicate. Results are expressed as the percentage of infected cells, the mean number of parasites per infected cell or by the endocytic index (EI) which represents the percentage of infected cells multiplied by the mean number of parasites per infected cell.
Vero cells (from green monkey kidney) were seeded at a density of 15x10^6 cells per 25cm^2 culture flasks or at 5 x10^4 cells/well into LabTek slides. The cultures were maintained in RPMI 1640 medium supplemented with 5% fetal bovine serum and kept at 37°C in an atmosphere of 5% CO2. Cell culture-derived trypomastigotes from T.cruzi CL Brener (clone F11-F5) were isolated from the supernatant of Vero cells, which had been previously infected with bloodstream trypomastigotes. LabTek wells were infected for 17h at 37°C with cultured trypomastigotes at a 10:1 parasite/cell ratio in the presence or in the absence of increasing doses of a freshly made dilutions of 3-30 µM of OxoPA or Br-OxoPA molecules. Cultures were washed, fixed and stained with Giemsa. *At this stage, for comparison, results obtained from cultures seeded with or without 10-1000 µM specific proline racemase inhibitor pyrrole-2-carboxylic acid (PYC) are shown and were obtained from our previous work. Endocytic index was calculated as the % of infected cells X the mean number of intracellular parasites per infected cell. Nd = Not done

[3] = tested on: T.cruzi CL Brener (clone F11-F5); assay: Intracellular parasite fate: inhibitor added after 17h infection, 48h, Giemsa scoring; type: cell-based; conditions: 48h after infection; for Mean number of parasites/ cell: 3,9 at 0; for % Infected cells: 39,3 at 0; for Number of parasites/100 cells: 153,15 at 0
Description: as §1
Additional studies were performed to verify whether TcPRAC inhibition by the new compounds would influence the intracellular fate of the parasite. For this purpose, after infection for 17 hours, the host cells were washed and different ligand concentrations (3µM, 10 µM, 30 µM) were added to the medium and the infection was followed for up to 48 hours. As can be observed in Tables 4A, B and C, after 48 hours of culture treatments, there was a dose-dependent decrease in the number of parasites/ 100 cells, as well as in the percentage of infected cells or yet in the mean number of parasites/cell. […] Table 4A : Number of parasites/100 cells
Vero cells (from green monkey kidney) were seeded at a density of 15x10^6 cells per 25cm2 culture flasks or at 5x10^4 cells/well into LabTek slides. The cultures were maintained in RPMI 1640 medium supplemented with 5% fetal bovine serum and kept at 37°C in an atmosphere of 5% CO2. Cell culture-derived trypomastigotes from T.cruzi CL Brener (clone F11-F5) were isolated from the supernatant of Vero cells, which had been previously infected with bloodstream trypomastigotes. LabTek wells were infected for 17h at 37°C with cultured trypomastigotes at a 10:1 parasite/cell ratio. All the wells were then washed to eliminate all extracellular parasites and new medium was added to the cultures containing or not increasing concentrations of freshly made dilutions of 3-30 µM of OxoPA or Br-OxoPA molecules. Cultures were washed after 48h, fixed and stained with Giemsa.

[4] = Inhibitor concentration (µM) 30, Table 5

O=C(O)/C=C/C(=O)CBr [Br-OxoPA, (E)-5-bromo-4-oxopent-2-enoic acid]
Endocytic index (EI) ([1]; Inhibitor concentration (µM) 3): 78 | potency relative to PYC in terms of TcPRAC inhibition (TcPRAC): 4 fold | Racemization Inhibition (TcPRAC; ligand 2.5 µM): 50.0% | Racemization Inhibition (TcPRAC; ligand 10.0 µM): 81.3% | Mean number of parasites/ cell ([2]; 3 µM): 2,0 | % Infected cells ([2]; 3 µM): 37,7% | Endocytic index ([2]; 3 µM): 77,7 | Mean number of parasites/ cell ([2]; 10 µM): 1,8 | % Infected cells ([2]; 10 µM): 23,5% | Endocytic index ([2]; 10 µM): 42,3 | Mean number of parasites/ cell ([2]; 30 µM): 1,6 | % Infected cells ([2]; 30 µM): 13,5% | Endocytic index ([2]; 30 µM): 28,7 | Endocytic index (EI) ([2]; Inhibitor concentration (µM) 10, Table 5): 42 | Endocytic index (EI) [2, 4]: 29 | lower doses necessary to obtain the same endocytic index (EI) as with PYC ([2]; Table 5): 30 fold | lower doses necessary to obtain the same endocytic index (EI) as with PYC ([2]; versus 1000 µM PYC): 30 times | Mean number of parasites/ cell ([3]; 3 µM): 3,2 | % Infected cells ([3]; 3 µM): 55,3% | Number of parasites/100 cells ([3]; 3 µM): 176,5 | Mean number of parasites/ cell ([3]; 10 µM): 3,1 | % Infected cells ([3]; 10 µM): 49,8% | Number of parasites/100 cells ([3]; 10 µM): 155,8 | Mean number of parasites/ cell ([3]; 30 µM): 2,3 | % Infected cells ([3]; 30 µM): 31,0% | Number of parasites/100 cells ([3]; 30 µM): 69,4

CC(=O)/C=C/C(=O)O [OxoPA, (E)-4-oxopent-2-enoic acid]
Endocytic index (EI) ([1]; Inhibitor concentration (µM) 3): 42 | Endocytic index (EI) ([1]; Inhibitor concentration (µM) 10): 23 | potency relative to PYC in terms of TcPRAC inhibition (TcPRAC): 2 fold | Racemization Inhibition (TcPRAC; ligand 3.0 µM): 50.0% | Mean number of parasites/ cell ([2]; 3 µM): 1,6 | % Infected cells ([2]; 3 µM): 26,8% | Endocytic index ([2]; 3 µM): 41,8 | Mean number of parasites/ cell ([2]; 10 µM): 1,4 | % Infected cells ([2]; 10 µM): 16,6% | Endocytic index ([2]; 10 µM): 22,96 | Mean number of parasites/ cell ([2]; 30 µM): 1,5 | % Infected cells ([2]; 30 µM): 13,9% | Endocytic index ([2]; 30 µM): 21,5 | Endocytic index (EI) [2, 4]: 21 | lower doses necessary to obtain the same endocytic index (EI) as with PYC ([2]; Table 5): 100 fold | lower doses necessary to obtain the same endocytic index (EI) as with PYC ([2]; versus 1000 µM PYC): 100 times | Mean number of parasites/ cell ([3]; 3 µM): 2,9 | % Infected cells ([3]; 3 µM): 41,3% | Number of parasites/100 cells ([3]; 3 µM): 121,3 | Mean number of parasites/ cell ([3]; 10 µM): 3,0 | % Infected cells ([3]; 10 µM): 41,3% | Number of parasites/100 cells ([3]; 10 µM): 129,4 | Mean number of parasites/ cell ([3]; 30 µM): 2,8 | % Infected cells ([3]; 30 µM): 20,0% | Number of parasites/100 cells ([3]; 30 µM): 56,1

Reference: patent EP2451450B1, “Inhibitors of proline racemase enzymes for the treatment of Trypanosoma spp infections” (Institut Pasteur, priority 2009, dated 2011)
